Where two headings read alike, the source gives them in different places.

In series [1] the test system is CMS. Nature of the series: Primary HTS, single concentration, Cell Titer Glo. Conditions: approximately 10 µM, 72 h, relative to positive control. The class given is cell-based, human.
Series [2] has as its system CMK. The series is described as follows: Primary HTS, single concentration, Cell Titer Glo. The class given is cell-based, human. To be noted: approximately 10 µM, 72 h, relative to positive control. On the technique in general: Cellular ATP, detected with luciferase, serves as a proxy for viable cell number.
Series [3] relates to CHRF288-11. The series is described as follows: Primary HTS, single concentration, Cell Titer Glo. In kind it is cell-based, human. Conditions: approximately 10 µM, 72 h, relative to positive control.
For a further series, the system named is MOLM-13. Nature of the series: Primary HTS, single concentration, Cell Titer Glo. The class given is cell-based, human. To be noted: approximately 10 µM, 72 h, relative to positive control.
Another series concerns MV4-11. The series is described as follows: Primary HTS, single concentration, Cell Titer Glo. In kind it is cell-based, human. To be noted: approximately 10 µM, 72 h, relative to positive control.
The test system of series [4] is U937. The series is described as follows: Secondary dose-response HTS, Cell Titer Glo. Conditions: secondary HTS, 72 h, average of triplicate; read-out: EC50 U937. The class given is cell-based, human.
For series [5], the system named is CMK. The series is described as follows: Secondary dose-response HTS, Cell Titer Glo. In kind it is cell-based, human. Conditions: secondary HTS, 72 h, average of triplicate; read-out: EC50 CMK.
In series [6] the test system is CHRF288-11. The series is described as follows: Secondary dose-response HTS, Cell Titer Glo. In kind it is cell-based, human. Conditions: secondary HTS, 72 h, average of triplicate; read-out: EC50 CHRF288-11.
The test system of another series is ML-2. The series is described as follows: Primary HTS, single concentration, Cell Titer Glo. The class given is cell-based, human. To be noted: approximately 10 µM, 72 h, relative to positive control.
For series [7], the system named is U937. Nature of the series: Primary HTS, single concentration, Cell Titer Glo. To be noted: approximately 10 µM, 72 h, relative to positive control. In kind it is cell-based, human.
Series [8] deals with CMS. The series is described as follows: Secondary dose-response HTS, Cell Titer Glo. In kind it is cell-based, human. To be noted: secondary HTS, 72 h, average of triplicate; read-out: EC50 CMS.
The subject of series [9] is M07e. Nature of the series: Primary HTS, single concentration, Cell Titer Glo. In kind it is cell-based, human. Conditions: approximately 10 µM, 72 h, relative to positive control.
The subject of series [10] is CHRF288-11-luciferase/YFP+ xenograft. Nature of the series: In vivo efficacy, survival. Further details: species or system NSG mice. To be noted: CHRF288-11 xenograft, 60 mg kg−1 twice daily for 5 days up to 4 weeks, oral gavage.
Series [11] is described as follows: Pharmacokinetics of ruxolitinib, single oral dose, plasma LC-MS/MS. In kind it is in vivo, mice. To be noted: mouse, 60 mg kg−1 oral gavage. Here is the method: Data are mean ± standard error (SE) (N = 5 per gender). Concentration-time data were analyzed by non-compartmental analysis and pharmacokinetic parameters were calculated in WinNonLin. c–e, top Kaplan–Meier analysis of animal survival in c CHRF288–11-luciferase/YFP+ xenograft, d CBFA2T3-GLIS2/JAK2V617F-induced AMKL quaternary transplants, and e AMKL patient-derived xenograft.
Animal studies were performed under protocols approved by the Institutional Animal Care and Use Committee at OSU. […] Serial blood collection was performed from 15 min up to 240 min after dose administration.

The test system of the next series is MKPL. Nature of the series: cells.
The test system of the next series is WSU. Nature of the series: cells. To be noted: Homo sapiens, 72 h, read-out: IC50 (WSU).
Series [12] concerns CMS. The class given is cell-based. Conditions: Homo sapiens, 72 h, read-out: IC50 CMS.
The next series deals with Meg-01. Nature of the series: cells.
Series [13] has as its system CMK. The series is described as follows: cells.
The test system of series [14] is CBFA2T3-GLIS2/JAK2V617F tertiary transplant leukemic blasts. The class given is cell-based, mouse.
For series [15], the system named is CHRF288-11. In kind it is cell-based. Conditions: Homo sapiens, 72 h.
Another series concerns CMY. The series is described as follows: cells.
Series [16] deals with M07e. Nature of the series: cells.
A further series deals with M-MOK. Nature of the series: cells.
For series [17], the system named is AMKL patient-derived xenograft. The series is described as follows: In vivo efficacy, survival. Further details: species or system NSG-SGM3 mice. To be noted: AMKL PDX, 60 mg kg−1 twice daily for 5 days up to 4 weeks, oral gavage.

The compound `CC(/C=C/C(=O)NO)=C\[C@@H](C)C(=O)c1ccc(N(C)C)cc1` [Trichostatin A] came in with a CMS %inh in the series with CMS [1] of 111%. The compound also gave a CMK %inh in the series with CMK [2] of 137%. The compound further gave a CHRF288-11 %inh in the series with CHRF288-11 [3] of 190%. Also, the MOLM-13 %inh with MOLM-13 worked out at 98%. Besides, the MV4-11 %inh in the series on MV4-11 came out at 81%. For the same compound, the EC50 (in general, the concentration needed to bring the measured effect to its halfway point) in the series with U937 [4] amounted to 40 nM; in the series with CMK [5], 50 nM; in the series with CHRF288-11 [6], 40 nM; with CMS [8] it was 40 nM. This compound yielded an ML-2 %inh in the series on ML-2 of 60%. The compound also had a U937 %inh in the series on U937 [7] of 83%. For the same compound, in the series on M07e [9], the M07e %inh is 147%.
Regarding `N#CC[C@H](C1CCCC1)n1cc(-c2ncnc3[nH]ccc23)cn1` [Ruxolitinib, ruxolitinib], the Median survival in series [10] came to 31 days; in series [17], 43 days. The AUC(0-t) (as a rule, the area under the concentration-time curve up to a stated or last time point) stood at 16.8 ± 10.8 µM·h in series [11] (BoyJ, Female); 17.9 ± 6.5 µM·h in [11] (BoyJ, Male); 4.8 ± 0.6 µM·h in series [11] (NSG, Female); 4.1 ± 0.6 µM·h in series [11] (NSG, Male). Moreover, the Cmax (commonly the highest concentration seen after dosing) amounted to 18.1 ± 10.6 µM in [11] (BoyJ, Female); 28.6 ± 10.6 µM in series [11] (BoyJ, Male); 6.9 ± 1.7 µM in series [11] (NSG, Female); 5.5 ± 1.7 µM in series [11] (NSG, Male). Also, the Tmax (as a rule, the time at which the peak concentration occurs) in [11] (BoyJ, Female) turned out to be 15 min; in series [11] (BoyJ, Male) it was 15 min; in [11] (NSG, Female), 15 min; in series [11] (NSG, Male) it was 15 min. The half-life (usually the time needed for the level to fall by half in the phase considered) in series [11] (BoyJ, Female) is 122 ± 66 min; in [11] (BoyJ, Male) it was 158 ± 104 min; in series [11] (NSG, Female) it was 75.6 ± 28.8 min; in series [11] (NSG, Male) it was 79.2 ± 44.4 min. In addition, the IC50 (as a rule, the concentration at which inhibition is half-maximal) in the series on MKPL is 6300 nM; in the series with WSU, 8.7 nM; with CMS [12] it was 64 nM; with Meg-01, more than 10000 nM; with CMK [13], 142 nM; in the series on CHRF288-11 [15] (read-out: IC50, ruxolitinib + BMP2, CHRF288-11, 72 h, with 100 ng mL−1 BMP2), 103 nM. The IC50 in the series with CHRF288-11 [15] (read-out: IC50, ruxolitinib + EPO, CHRF288-11, 72 h, with 100 ng mL−1 EPO) turned out to be 142 nM; in the series on CHRF288-11 [15] (read-out: IC50, ruxolitinib + TPO, CHRF288-11, 72 h, with 100 ng mL−1 TPO) it was 480 nM; with CHRF288-11 [15] (read-out: IC50, ruxolitinib alone (Fig. 6g), CHRF288-11, 72 h, without cytokine), 119 nM; in the series with CHRF288-11 [15] (read-out: IC50 CHRF288-11, 72 h, Cell Titer Glo) it was 143 nM; with CMY it was 49 nM; with M07e [16], 45 nM. In the series on M-MOK, this compound had an IC50 of 6.4 nM. Besides, the “sensitivity of primary murine blasts” value in series [14] is recorded as “sensitive”.

(Values after PMC6522510 (Nature Communications, 2019).)
